Legend:
HT22 cells [1] = assay: Glutathione determination in glutamate-treated cells; assay type: cell-based, mouse; details: HT22, 10 mM glutamate 8 hrs
Protocol: The content of total glutathione (reduced and oxidized) in the supernatant of cell homogenate was measured using the glutathione assay kit (Cayman Chemical) in microtiter plate assay, which utilizes an enzymatic recycling method, using glutathione reductase, for the quantification of glutathione. The sulfhydryl group of glutathione reacted with 5,5′-dithiobis-2-nitrobenzoic acid (DTNB) and produced a yellow-colored 5-thio-2-nitrobenzoic acid (TNB), which was measured at 405 nm.

HT-22 neuronal cells = assay: Respirometry (OCR, ECAR; Seahorse XF-96); assay type: cell-based, mouse; parameters: ECAR (glycolysis), difference from control: unit not given here; details: HT-22 cells, mean±SEM
Protocol: Oxygen consumption rates (OCR) and extracellular acidification rates (ECAR) of HT-22 neuronal cells were performed on the XF-96 Extracellular Flux Analyzer (Seahorse Bioscience) using standard methods (Beeson et al., 2010). In brief, cells were cultured in 96 well Seahorse plates in DMEM high glucose media (Invitrogen) supplemented with 10% FBS, 10 mM HEPES, and 1% antibiotic-antimycotic (Invitrogen). The media was replaced with DMEM media supplemented with 25 mM glucose, 10 mM sodium pyruvate, 31 mM NaCl, and 2 mM glutamine at pH 7.4. Each of the four drug ports on the Seahorse sensor cartridge were filled with test compound (media only, 5 μM NQN-1, 10 μM VK3 or 12.5 μM MB), 10 μM oligomycin, 1 μM FCCP, and 5 μM rotenone, which were injected into each well at 20, 80, 110, and 135 min, respectively. The pmol/min OCR rate for each well (9-52 wells/group) was measured. Wells were excluded from the analysis if their OCR values surpassed the Tukey Outlier Rule. In order to standardize the OCR rates across wells, the average OCR value at 17 min (last time point prior to injection of the test compounds) for each experimental group was calculated, and set to 100. All OCR values are given as a percentage of this pre-treatment value. […]

c-fos = c-fos gene expression in PTZ-treated zebrafish larvae; assay type: in vivo, zebrafish (Danio rerio); details: 7 dpf zebrafish, pre-treatment
Protocol: Ten 7 dpf larvae were placed in 500 μL tank water in wells of a 48-well cell-culture plate and appropriate concentrations of drugs were added as in the behavior study (Table 9). After a 1 h pre-incubation period, PTZ was added to a final concentration of 15 mM in appropriate wells and larvae were incubated for a further 45 min. Fish were quickly euthanized by incubating the plate in an ice-water bath for 15 min. Fish were removed from each well and all liquid removed before freezing at −80° C. RNA was extracted using Trizol (Invitrogen) followed by the RNeasy Mini kit (Qiagen). Frozen embryos were homogenized in 800 μL Trizol using in-tube pestles and a motorized homogenizer. Following a 5-min incubation at room temperature, 200 μL chloroform was added and the samples were centrifuged at 12,000 g for 10 min. The aqueous phase was transferred to a new tube and 250 μL 100% ethanol was added and the samples mixed. This mixture was then transferred to the Qiagen minicolumn assembly and the protocol followed as described with the kit. Samples were eluted in 30 μL RNase free water and concentration was determined using the Nanodrop instrument (Thermo Fisher). cDNA was prepared using the RETROscript kit (Ambion) with 500 ng total RNA. cDNA was then diluted 1:1 with sterile dH2O and 2.5 μL of this cDNA was used in the QPCR reaction with SsoAdvanced SYBR Green Supermix (BioRad) and c-fos primers designed to span an intron-exon junction (c-fos F: […], SEQ ID NO:9; c-fos R: […], SEQ ID NO:10) ([…] each) in the BioRad CFX96 RealTime instrument. L13a and EF1a gene expression were used for normalization (Rahn et al., 2013). The following cycle conditions were used: 95° C./3 min, 40 cycles of 95° C./15 s, 62° C./30 s, followed by 95° C. 30 s and a dissociation curve. Samples were run in duplicate. The 2^−ΔΔCt method was used to quantify gene expression, whereby all gene Ct values were first normalized to Ct values of the geometric mean of the Ct of L13a and EF1a (Livak and Schmittgen, 2001). Treated samples were then normalized to the tank water control and converted to fold change.

PTZ-induced seizures = assay: PTZ-induced seizure (swim activity) model in zebrafish larvae; assay type: in vivo, zebrafish (Danio rerio)
Protocol: The DanioVision locomotion tracking instrument with Ethovision XT software (Noldus) was used to measure the severity of the seizures by quantifying the locomotor activity of each fish.
In a 48-well plate, one 6-7 dpf larva was added per well. Compounds were given at a sub-lethal dose and treated for 1 h. Three control rows were included—tank water (TW) only, PTZ only and PTZ+VPA (2-4 mM final concentration of VPA). […] After 5 min, the plate was transferred to the Daniovision apparatus and the chamber light was turned on. After 2 min, Ethovision was used to determine the distance traveled (a marker of seizure of activity) by each fish for 15 min (25 frames per second). Velocity, duration of movement, and frequency of movement were also determined from the same recording. After measurement, fish were monitored visually for survival. The distance moved over the recording period with Ethovision XT software (Noldus) was averaged over 8 wells per treatment unless the fish was not detected.
In a 48-well plate, one 7 dpf zebrafish was added per well. Larvae were dosed with each compound at a sub-lethal dose 1 h prior to PTZ treatment. Three control rows were included with each experiment—tank water only control, PTZ only and PTZ+VPA (4 mM final concentration of VPA). […] After 5 min, the plate was transferred to the Daniovision instrument (Noldus Information Technology) and the chamber light was turned on. After 2 min, MediaRecorder (Noldus) was used to record video for 15 min. A small number of videos were acquired 25 frames per second, but the majority of the data was acquired at the frame rate of 60 frames per second. After recording, fish were monitored visually for survival. Ethovision XT software (Noldus) was used to track the fish movement from the video images in order to calculate the total distance traveled over 15 min. […] All experimental comparisons were made between animals from the same clutch.

zebrafish larvae = assay: Zebrafish larval toxicity (NOEC, lethal dose); assay type: in vivo; details: 7 dpf zebrafish larvae; highest sub-lethal dose
Protocol: Using a 96-well plate, one zebrafish larva (7 dpf) was placed in each well in 100 μL of tank water (TW). 100 μL of each compound (0.5-15 μM) was then added to each well for 12 animals (one row) to give a final volume of 200 […]. A control row was tested for DMSO toxicity effects. […] Each drug was assessed for the no observed effect concentration (NOEC), the highest non-lethal dose resulting in no apparent toxic effects.
Zebrafish (AB strain) were obtained from the Zebrafish International Resource Center (supported by P40 RR012546 from NIH-NCRR). Zebrafish were maintained and crossed according to standard methods (Westerfield, 2000). Fertilized eggs were collected and placed in E3 embryo medium and positioned in an incubator set at 28.5° C. with a 14/10 h light/dark cycle (Kimmel et al., 1995). To determine the lethal dose of each compound, 96-well plates containing one zebrafish (7 days post-fertilization, dpf) per well in 100 μL of tank water were used. 100 μL of each compound (0.5 to 15 μM) was added to each well for 12 animals (one row) for a final volume of 200 μL. One row of larvae was used as DMSO only controls. […] All zebrafish studies were approved by the Medical University of South Carolina Institutional Animal Care and Use Committee (AR #2850) and performed in accordance with the guidelines.
Using a 96-well plate, one zebrafish larva (7 dpf) was placed in each well in 100 μL of tank water. 100 μL of each compound was then added to each well for 12 animals (one row) for a final volume of 200 μL. One row of zebrafish larvae was used as DMSO only controls. […] Toxicity was also measured in the mouse model by the NIH Anticonvulsant Screening Program at the National Institute of Neurological Disorders and Stroke (Stables and Kupferberg, 1997), according to the established NIH experimental procedures. Compounds were delivered into mice by intraperitoneal (i.p.) injection at a dose of 100 mg/kg in sterile 5% DMSO, 95% Neobee (Josey et al., 2013). Acute toxicity was assessed by monitoring the animals for impaired neuromuscular function by placing treated mice on a rod rotating at 6 rpm. […]

[2] = Antioxidant activity assay (DPPH free radical scavenging); details: 20 μM, 100 μM DPPH in methanol
Protocol: Antioxidant activity of various reagents was assayed as previously described by monitoring the disappearance of the optical absorbance of the stable-free radical DPPH on reaction with test compounds (Blois, 1958). The rate of the reaction represents the antioxidant potency of test agents. The known free radical scavenger Trolox and ascorbic acid were used as positive controls. Briefly, 10 μL of test reagents at final concentrations of 20 μM were added to 200 μL of 100 μM DPPH in methanol. Optical absorbance of DPPH at 517 nm was immediately monitored for 10 min.

HT22 cells [3] = assay: t-BuOOH toxicity protection (MTS cell viability); assay type: cell-based, mouse; details: HT22, 50 μM t-BuOOH
Protocol: Cell viability was assessed by the ability of the viable cells to metabolize 3-(4,5-dimethylthiazol-2-yl)-5-(3-carboxymethoxyphenyl)-2(4-sulfophenyl)2-H-tetrazolium, inner salt (MTS), as described previously (Cory et al., 1991). The metabolism of tetrazolium salts is often used to measure cellular proliferation, but in the system used here, it has been previously shown to correlate well with cell viability as determined by trypan blue exclusion and colony-forming assays (Davis and Maher, 1994). Briefly, HT-22 cells were seeded onto 96-well plates at 5.0×10^3 cells per well in 75 μL of medium and maintained at 37° C. in 5% CO2 overnight prior to the initiation of experimental treatments. For glutamate toxicity testing, cells were subsequently treated with 25 μL of medium containing glutamate (monosodium glutamate, Sigma, 1 M stock concentration in media, to achieve a final concentration of 10 mM) plus inhibitors (stock in DMSO) and maintained at 37° C. in 5% CO2. For t-BuOOH toxicity testing, cells were subsequently treated with 25 μL of medium containing t-BuOOH (Sigma, 10 mM stock concentration, to achieve a final concentration of 50 μM) plus inhibitors (stock in DMSO) and maintained at 37° C. in 5% CO2 for 3 hours, after which the media was removed, cells washed gently with HBSS, the media replaced with standard culture media, and the cells returned to incubation at 37° C. in 5% CO2. For both glutamate and t-BuOOH treatments, 10 μl of MTS solution was added to each well 24 hrs after initial treatment, and the cells were maintained in growth medium for 2 h at 37° C. Absorbance at 490 nm was subsequently measured by a SpectraMax 190 plate reader (Molecular Devices). The growth medium without cells in the presence of MTS solution was used as solution background and untreated cells were considered the controls. Cell viability was calculated as a percentage compared with untreated controls. EC50 determinations were based on 12-point titrations using GraphPad Prism, and each experiment was repeated at least four times. Morphology of HT22 cells following treatments was determined by phase-contrast microscopy. Digital images of cells grown on cell culture plates were captured at 10× magnification.
In light of the findings that the protection against glutamate induced cell death provided by VK2, 2q, and 2j, are at least partially mediated by the attenuation of the increased production of endogenous ROS, the inventors also examined the effects of these compounds on tert-butylhydroperoxide (t-BuOOH) induced cell death. t-BuOOH is a short chain analog of the lipid hydroperoxides formed from peroxidation reactions during oxidative stress that is cytotoxic to cells (Lemasters and Nieminen, 1997). […] It is well documented that cells undergo rapid and extensive fragmentation in the early stages of cell death (Bossy-Wetzel et al., 2003; Frank et al., 2001; Breckenridge et al., 2008; Jagasia et al., 2005; Lee et al., 2004). Recent studies have shown that mitochondrial fragmentation is regulated by the translocation of dynamin-related protein 1 (Drp1) from the cytosol to the mitochondria, where it assembles to form spirals at division sites (Smirnova et al., 2001). Although the exact molecular mechanism is still not well studied, the activity of Drp1 is regulated by the phosphorylation and dephosphorylation of specific serine residues by protein kinases and phosphatases such as calcineurin and the PGAM5 (Wang et al., 2012; Chang et al., 2007). […]

COC1=C(OC)C(=O)C(CCCCCCCCCCO)=C(C)C1=O [Ideb, Idebenone]
depletion of total cellular GSH (HT22 cells [1]; 5 μM): did not prevent GSH depletion

CN(C)c1ccc2nc3ccc(=[N+](C)C)cc-3sc2c1.[Cl-] [MB, reference compound]
basal cellular respiration, difference in OCR from control (HT-22 neuronal cells; 1 h treatment, OCR as percentage of pre-treatment value): 53.21±5.92
basal mitochondrial respiration, difference from control (HT-22 neuronal cells; basal minus non-mitochondrial (rotenone)): 19.22±6.54
ATP-linked respiration, difference from control (HT-22 neuronal cells; basal minus oligomycin): 19.76±6.59
ECAR (glycolysis), difference from control (HT-22 neuronal cells): −0.86±1.26

CN1C(=O)C(Cc2c[nH]c3ccccc23)NC1=S (stereo not shown) [Nec-1, Necrostatin-1]
depletion of total cellular GSH (HT22 cells [1]; 50 μM): did not prevent GSH depletion

CCCC(CCC)C(=O)O [Valproic Acid (VPA), 2-n-propylpentanoic acid]
PTZ-induced increase in c-fos expression (c-fos): able to blunt this increase in expression
required concentration for reduction of seizures (PTZ-induced seizures; PTZ-treated zebrafish larvae): 4 mM
Seizure suppression (PTZ-induced seizures; PTZ-treated zebrafish larvae, pretreated 1 hr at NOEC): Yes
PTZ-induced swim activity (distance traveled) (PTZ-induced seizures; zebrafish larvae, 1 h pretreatment at sub-lethal concentration (VPA 4 mM, NQN-1 3 μM), 15 mM PTZ): significantly reduced distance traveled compared to PTZ alone
Highest concentration tested for anti-seizure activity (zebrafish larvae): 4 mM

O=C1O[C@H]([C@@H](O)CO)C(O)=C1O [ascorbic acid]
free radical scavenging capacity (DPPH absorbance) [2]: rapidly scavenged DPPH

COC1=C(OC)C(=O)C(C/C=C(\C)CC/C=C(\C)CC/C=C(\C)CC/C=C(\C)CC/C=C(\C)CC/C=C(\C)CC/C=C(\C)CC/C=C(\C)CC/C=C(\C)CCC=C(C)C)=C(C)C1=O [co-enzyme Q10]
protection from t-BuOOH induced cell death (HT22 cells [3]): less effective

Source: patent US10391070B2, “Compositions and methods for treating neurological diseases or injury” (MUSC FOUNDATION FOR RESEARCH DEVELOPMENT, priority 2012, dated 2019)
